Laboratory results published in ChEMBL document CHEMBL1124446, “Synthesis of some novel potent and selective catechol O-methyltransferase inhibitors” (J Med Chem, 1989).

Experiments:
[1] = target: T1, Catechol O-methyltransferase (Rattus norvegicus, UniProt P22734); test: In vitro inhibitory activity against catechol O-methyltransferase of rat brain using 3,4-dihydroxybenzoic acid as the substrate.
T1 sequence (P22734 whole entry): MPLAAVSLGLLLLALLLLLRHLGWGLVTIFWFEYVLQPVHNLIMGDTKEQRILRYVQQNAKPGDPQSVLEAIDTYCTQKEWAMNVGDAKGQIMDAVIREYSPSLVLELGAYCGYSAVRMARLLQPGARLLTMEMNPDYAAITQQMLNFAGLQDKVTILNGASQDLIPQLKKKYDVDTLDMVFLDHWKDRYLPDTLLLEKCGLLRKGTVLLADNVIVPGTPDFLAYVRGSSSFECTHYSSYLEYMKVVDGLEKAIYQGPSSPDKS

[2] = target: T2, Aromatic-L-amino-acid decarboxylase (Sus scrofa, UniProt P80041); test: Inhibitory activity against the dopamine decarboxylase
T2 sequence (P80041 whole entry): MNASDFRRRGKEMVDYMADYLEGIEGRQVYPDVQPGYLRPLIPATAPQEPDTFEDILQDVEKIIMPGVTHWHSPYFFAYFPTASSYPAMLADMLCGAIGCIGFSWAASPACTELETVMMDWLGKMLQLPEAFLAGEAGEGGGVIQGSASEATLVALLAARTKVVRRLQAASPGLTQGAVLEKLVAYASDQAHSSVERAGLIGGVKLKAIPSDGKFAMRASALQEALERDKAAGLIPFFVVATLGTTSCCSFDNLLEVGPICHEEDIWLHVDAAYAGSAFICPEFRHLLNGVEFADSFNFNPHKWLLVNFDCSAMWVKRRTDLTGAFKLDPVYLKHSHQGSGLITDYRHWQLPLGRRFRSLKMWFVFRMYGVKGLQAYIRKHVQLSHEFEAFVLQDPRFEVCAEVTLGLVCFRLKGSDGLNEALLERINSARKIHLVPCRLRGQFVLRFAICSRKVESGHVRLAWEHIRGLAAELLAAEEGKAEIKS

[3] = target: T3, Amine oxidase [flavin-containing] B (Rattus norvegicus, UniProt P19643); test: Inhibitory activity against the Monoamine oxidase B
T3 sequence (P19643 whole entry): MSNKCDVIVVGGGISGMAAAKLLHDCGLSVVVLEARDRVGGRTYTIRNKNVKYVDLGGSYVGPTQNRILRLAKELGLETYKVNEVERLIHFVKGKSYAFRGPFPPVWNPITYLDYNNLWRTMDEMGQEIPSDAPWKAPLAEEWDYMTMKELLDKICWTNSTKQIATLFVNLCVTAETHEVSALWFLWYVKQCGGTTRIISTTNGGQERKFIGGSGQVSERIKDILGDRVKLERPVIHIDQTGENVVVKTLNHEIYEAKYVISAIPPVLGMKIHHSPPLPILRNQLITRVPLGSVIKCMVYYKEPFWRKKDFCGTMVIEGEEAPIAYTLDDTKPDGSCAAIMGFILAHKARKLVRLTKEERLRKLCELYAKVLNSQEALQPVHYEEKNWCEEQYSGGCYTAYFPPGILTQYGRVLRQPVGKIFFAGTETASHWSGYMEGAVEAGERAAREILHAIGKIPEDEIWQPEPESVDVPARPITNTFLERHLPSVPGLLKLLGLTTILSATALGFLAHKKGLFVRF

[4] = target: T4, Amine oxidase [flavin-containing] A (Mus musculus, UniProt Q64133); test: Inhibitory activity against the Monoamine oxidase A
T4 sequence (Q64133 whole entry): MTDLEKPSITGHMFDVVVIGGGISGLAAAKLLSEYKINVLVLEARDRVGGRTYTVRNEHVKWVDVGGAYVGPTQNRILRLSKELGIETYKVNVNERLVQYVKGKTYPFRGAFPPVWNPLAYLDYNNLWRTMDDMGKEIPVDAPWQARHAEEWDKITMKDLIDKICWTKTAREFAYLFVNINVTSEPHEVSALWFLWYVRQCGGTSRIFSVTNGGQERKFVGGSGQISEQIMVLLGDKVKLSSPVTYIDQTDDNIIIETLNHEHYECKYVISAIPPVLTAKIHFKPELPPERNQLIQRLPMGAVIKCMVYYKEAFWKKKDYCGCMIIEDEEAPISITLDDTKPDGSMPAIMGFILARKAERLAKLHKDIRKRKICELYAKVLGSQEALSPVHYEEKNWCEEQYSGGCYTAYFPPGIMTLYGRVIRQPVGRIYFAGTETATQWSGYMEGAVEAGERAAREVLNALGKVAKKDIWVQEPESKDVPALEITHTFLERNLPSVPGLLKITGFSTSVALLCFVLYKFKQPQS

Tyrosine 3-monooxygenase = target: T5, Tyrosine 3-monooxygenase (Bos taurus, UniProt P17289); test: Inhibitory activity against the tyrosine hydroxylase
T5 sequence (P17289 whole entry): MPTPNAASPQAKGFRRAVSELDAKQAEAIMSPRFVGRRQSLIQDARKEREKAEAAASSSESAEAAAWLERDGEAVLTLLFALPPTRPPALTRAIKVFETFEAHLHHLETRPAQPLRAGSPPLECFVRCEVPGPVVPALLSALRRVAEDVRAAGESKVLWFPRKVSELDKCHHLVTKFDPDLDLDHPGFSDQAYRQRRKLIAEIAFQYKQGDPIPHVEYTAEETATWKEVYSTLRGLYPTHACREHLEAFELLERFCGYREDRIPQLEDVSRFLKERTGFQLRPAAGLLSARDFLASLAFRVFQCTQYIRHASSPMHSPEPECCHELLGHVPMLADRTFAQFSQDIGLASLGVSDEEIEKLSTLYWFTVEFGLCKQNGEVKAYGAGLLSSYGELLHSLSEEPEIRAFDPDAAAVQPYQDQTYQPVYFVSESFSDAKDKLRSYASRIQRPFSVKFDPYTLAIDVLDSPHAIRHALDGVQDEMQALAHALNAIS

[5] = target: T6, Dopamine beta-hydroxylase (Homo sapiens, UniProt P09172); test: Inhibitory activity against the dopamine beta hydroxylase
T6 sequence (P09172 whole entry): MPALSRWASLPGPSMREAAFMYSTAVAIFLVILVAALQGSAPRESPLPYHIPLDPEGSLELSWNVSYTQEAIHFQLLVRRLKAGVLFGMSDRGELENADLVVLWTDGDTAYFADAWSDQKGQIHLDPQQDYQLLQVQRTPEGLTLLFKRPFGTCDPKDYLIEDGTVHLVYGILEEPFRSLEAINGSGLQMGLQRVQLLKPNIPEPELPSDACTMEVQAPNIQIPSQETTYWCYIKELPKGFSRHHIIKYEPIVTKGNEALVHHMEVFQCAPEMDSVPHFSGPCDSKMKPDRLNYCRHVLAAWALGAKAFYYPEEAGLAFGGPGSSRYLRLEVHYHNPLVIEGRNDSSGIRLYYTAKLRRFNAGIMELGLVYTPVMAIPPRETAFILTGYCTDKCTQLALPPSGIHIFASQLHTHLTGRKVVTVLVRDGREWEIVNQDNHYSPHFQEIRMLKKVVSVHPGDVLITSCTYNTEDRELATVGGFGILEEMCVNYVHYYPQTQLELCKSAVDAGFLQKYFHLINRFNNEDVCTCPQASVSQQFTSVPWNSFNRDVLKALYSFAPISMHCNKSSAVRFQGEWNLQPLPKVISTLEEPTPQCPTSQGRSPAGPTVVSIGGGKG

[6] = Inhibitory activity against Phenol sulfotransferase
Rattus norvegicus [7] = test: Inhibition of formation of 3OMD in rat serum by 80 %, when compound was administered in combination with L-Dopa and carbidopa; format: functional
Rattus norvegicus [8] = species: Rattus norvegicus; test: Compound was tested for acute oral toxicity in Wistar rats; format: organism-based; details: in vivo

SMILES | IC50 [1] | also measured
O=C(NC12CC3CC(CC(C3)C1)C2)c1ccc(O)c(O)c1Cl | 12 µM | 
N#Cc1cc(C(=O)NC23CC4CC(CC(C4)C2)C3)cc(O)c1O | 0.09 µM | 
COc1cc(C(=O)/C=C/c2cc(O)c(O)c([N+](=O)[O-])c2)cc(OC)c1OC | 0.005 µM | IC50 [2]: > 50 µM; IC50 [3]: > 50 µM; IC50 [4]: > 50 µM; IC50 (Tyrosine 3-monooxygenase): 21 µM; IC50 [5]: > 50 µM
O=Cc1cc(O)c(O)c(C(F)(F)F)c1 | 2.3 µM | 
O=[N+]([O-])c1cc(CO)cc(O)c1O | 0.18 µM | 
O=C(O)c1cc(O)c(O)c([N+](=O)[O-])c1 | 0.62 µM | 
O=C(O)CCCCc1cc(O)c(O)c([N+](=O)[O-])c1 | 0.09 µM | 
CCOC(=O)/C(C#N)=C/c1cc(O)c(O)c([N+](=O)[O-])c1 | 0.05 µM | 
O=C(NC12CC3CC(CC(C3)C1)C2)c1cc(O)c(O)c(Cl)c1 | 0.4 µM | 
CC(=O)C(=Cc1cc(O)c(O)c([N+](=O)[O-])c1)C(C)=O [NITECAPONE] | 0.018 µM | IC50 [6]: 210 µM; Oral dose (Rattus norvegicus [7]): 30 mg/kg; Toxicity (Rattus norvegicus [8]): 2500 mg/kg
O=C1/C(=C/c2cc(O)c(O)c([N+](=O)[O-])c2)CC/C1=C\c1cc(O)c(O)c([N+](=O)[O-])c1 | 0.003 µM | 
O=C(/C=C/c1cc(O)c(O)c([N+](=O)[O-])c1)c1ccccc1 | 0.006 µM | IC50 [2]: > 50 µM; IC50 [3]: > 50 µM; IC50 [4]: > 50 µM; IC50 (Tyrosine 3-monooxygenase): 50 µM; IC50 [5]: > 50 µM
CC(=O)/C(C)=C/c1cc(O)c(O)c([N+](=O)[O-])c1 | 0.012 µM | 
O=Cc1cc(O)c(O)c([N+](=O)[O-])c1 [3,4-DIHYDROXY-5-NITROBENZALDEHYDE] | 0.024 µM | 
CC(=O)C(=Cc1cc(O)c(O)c(C(F)(F)F)c1)C(C)=O | 1.5 µM | 
O=Cc1cc(O)c(O)c(C=O)c1 | 0.16 µM | 
N#CC(C#N)=Cc1cc(O)c(O)c([N+](=O)[O-])c1 | 0.02 µM | 
CS(=O)(=O)c1cc(C=O)cc(O)c1O | 20 µM | 
CC(C)C(=O)c1ccc(O)c(O)c1 | 6 µM | IC50 [2]: > 50 µM; IC50 [3]: > 50 µM; IC50 [4]: > 50 µM; IC50 (Tyrosine 3-monooxygenase): 24 µM; IC50 [5]: > 50 µM
N#Cc1cc(O)c(O)c([N+](=O)[O-])c1 | 0.03 µM | 
O=C(NC12CC3CC(CC(C3)C1)C2)c1cc(O)c(O)cc1Cl | 2.7 µM | 
O=[N+]([O-])c1cc(O)c(O)c([N+](=O)[O-])c1 [3,5-DINITROCATECHOL (OR-486)] |  | IC50 [6]: 150 µM
N#Cc1cc(C=O)cc(O)c1O | 0.16 µM | 
CC(=O)c1cc(O)c(O)c([N+](=O)[O-])c1 | 0.016 µM | IC50 [6]: 125 µM
O=[N+]([O-])c1cc(Cl)cc(O)c1O | 0.025 µM | 
O=C(NC12CC3CC(CC(C3)C1)C2)c1cc(O)c(O)cc1[N+](=O)[O-] | 1.1 µM | 
O=C(NC12CC3CC(CC(C3)C1)C2)c1cc(O)c(O)c([N+](=O)[O-])c1 | 0.019 µM | 
O=C(O)CCCCc1cc(O)c(O)c(Cl)c1 | 8 µM | 
CN(C)C(=O)/C(C#N)=C/c1cc(O)c(O)c([N+](=O)[O-])c1 | 0.018 µM | 
